Assay results published in ChEMBL document CHEMBL4219261, “Discovery of 3(S)-thiomethyl pyrrolidine ERK inhibitors for oncology” (Bioorg Med Chem Lett, 2018).

Key:
[1] = molecular target: Mitogen-activated protein kinase 1 (Homo sapiens, UniProt P28482); assay: Inhibition of ERK2 (unknown origin)
[2] = Oral bioavailability in dog at 10 mg/kg; type: ADME, organism-based, Canis lupus familiaris; conditions: in vivo
[3] = MRT in rat at 3 mg/kg, iv or 10 mg/kg, po; type: ADME, organism-based; conditions: in vivo
[4] = AUC in dog at 10 mg/kg, po; type: ADME, organism-based, Canis lupus familiaris; conditions: in vivo
hERG (KCNH2) = hERG (KCNH2) (Homo sapiens, UniProt Q12809); assay: Inhibition of human ERG at […] by Rb efflux assay
[5] = Half life in dog at 2 mg/kg, iv or 2 mg/kg dosed via portal vein infusion or 10 mg/kg, po; type: ADME, organism-based, Canis lupus familiaris; conditions: in vivo
[6] = Total plasma clearance in rat at 3 mg/kg, iv or 10 mg/kg, po; type: ADME, organism-based
[7] = Clearance in dog hepatocytes assessed per million cells; type: ADME, cell-based, Canis lupus familiaris, Hepatocyte
[8] = Half life in rat at 3 mg/kg, iv or 10 mg/kg, po; type: ADME, organism-based; conditions: in vivo
[9] = Apparent permeability in human Caco2 cells […]; type: ADME, cell-based; conditions: Caco-2
HT-29 [10] = assay: Induction of apoptosis in human HT-29 cells harboring BRAF/KRAS mutant by caspase activation assay; type: functional, cell-based
[11] = Clearance in human hepatocytes assessed per million cells; type: ADME, cell-based, Hepatocyte
[12] = Oral bioavailability in rat at or 10 mg/kg; type: ADME, organism-based; conditions: in vivo
[13] = Total plasma clearance in dog at 2 mg/kg, iv or 2 mg/kg dosed via portal vein infusion or 10 mg/kg, po; type: ADME, organism-based, Canis lupus familiaris
Cytochrome P450 3A4 [14] = molecular target: T1, Cytochrome P450 3A4 (Homo sapiens, UniProt P08684); assay: Inhibition of CYP3A4 (unknown origin) under pre-incubation condition; type: ADME
Cytochrome P450 3A4 [15] = molecular target: T1, Cytochrome P450 3A4; assay: Inhibition of CYP3A4 (unknown origin) under co-incubation condition; type: ADME
[16] = MRT in dog at 2 mg/kg, iv or 2 mg/kg dosed via portal vein infusion or 10 mg/kg, po; type: ADME, organism-based, Canis lupus familiaris; conditions: in vivo
[17] = Drug level in human cryopreserved hepatocytes treated with [3H]8 at 1 uCi/ml up to 4 hrs by LC-ESI/MS/MS analysis; type: ADME, cell-based, Hepatocyte
[18] = Drug level in rat cryopreserved hepatocytes treated with (R)-N-(3-(4-fluorophenyl)-1H-indazol-5-yl)-1-(2-oxo-2-(4-(4-(pyrimidin-2-yl)phenyl)piperazin-1-yl)ethyl)pyrrolidine-3-carboxamide at 10 uM up to 4 hrs by LC-ESI/MS/MS analysis; type: ADME, cell-based, Hepatocyte
HT-29 [19] = assay: Antiproliferative activity against human HT-29 cells harboring BRAF/KRAS mutant; type: functional, cell-based
[20] = AUC in rat at 10 mg/kg; type: ADME, organism-based; conditions: in vivo
[21] = Drug metabolism in rat cryopreserved hepatocytes assessed as (R)-1-(2-oxo-2-(4-(4-(pyrimidin-2-yl)phenyl)piperazin-1-yl)ethyl)pyrrolidine-3-carboxylic acid formation at 10 uM up to 4 hrs by LC-ESI/MS/MS analysis; type: ADME, cell-based, Hepatocyte
[22] = Drug metabolism in human cryopreserved hepatocytes assessed as N-(3-(4-fluorophenyl)-1H-indazol-5-yl)acetamide formation at 1 uCi/ml up to 4 hrs by LC-ESI/MS/MS analysis; type: ADME, cell-based, Hepatocyte
[23] = Drug metabolism in human cryopreserved hepatocytes assessed as (R)-1-(2-oxo-2-(4-(4-(pyrimidin-2-yl)phenyl)piperazin-1-yl)ethyl)pyrrolidine-3-carboxylic acid formation at 1 uCi/ml up to 4 hrs by LC-ESI/MS/MS analysis; type: ADME, cell-based, Hepatocyte
[24] = Drug metabolism in rat bile assessed as amide hydrolysis followed by glucuronidation level 10 mg/kg, iv measured during 8 to 24 hrs post dose by LC-ESI/MS/MS analysis; type: ADME, organism-based; conditions: in vivo
[25] = Drug metabolism in rat bile assessed as amide hydrolysis followed by glucuronidation level 10 mg/kg, iv measured during 0 to 8 hrs post dose by LC-ESI/MS/MS analysis; type: ADME, organism-based; conditions: in vivo
[26] = Drug metabolism in rat urine assessed as amide hydrolysis followed by glucuronidation level 10 mg/kg, iv measured during 8 to 24 hrs post dose by LC-ESI/MS/MS analysis; type: ADME, organism-based; conditions: in vivo
[27] = Drug metabolism in rat cryopreserved hepatocytes assessed as N-(3-(4-fluorophenyl)-1H-indazol-5-yl)acetamide formation at 10 uM up to 4 hrs by LC-ESI/MS/MS analysis; type: ADME, cell-based, Hepatocyte
[28] = Drug metabolism in rat urine assessed as amide hydrolysis followed by glucuronidation level 10 mg/kg, iv measured during 0 to 8 hrs post dose by LC-ESI/MS/MS analysis; type: ADME, organism-based; conditions: in vivo
[29] = Oral bioavailability in rat at 10 mg/kg; type: ADME, organism-based; conditions: in vivo

Chain of Mitogen-activated protein kinase 1 (P28482 whole entry): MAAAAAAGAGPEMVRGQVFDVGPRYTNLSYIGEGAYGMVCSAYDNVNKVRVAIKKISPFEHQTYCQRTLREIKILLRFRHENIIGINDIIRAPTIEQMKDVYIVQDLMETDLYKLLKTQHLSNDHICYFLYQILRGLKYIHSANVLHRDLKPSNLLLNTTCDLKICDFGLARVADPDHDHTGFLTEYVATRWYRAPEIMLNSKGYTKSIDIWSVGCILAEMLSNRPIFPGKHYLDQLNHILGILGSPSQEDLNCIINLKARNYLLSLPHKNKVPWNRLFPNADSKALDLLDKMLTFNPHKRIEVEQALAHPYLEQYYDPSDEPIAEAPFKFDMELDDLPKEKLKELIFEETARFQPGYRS
T1 sequence (P08684 whole entry): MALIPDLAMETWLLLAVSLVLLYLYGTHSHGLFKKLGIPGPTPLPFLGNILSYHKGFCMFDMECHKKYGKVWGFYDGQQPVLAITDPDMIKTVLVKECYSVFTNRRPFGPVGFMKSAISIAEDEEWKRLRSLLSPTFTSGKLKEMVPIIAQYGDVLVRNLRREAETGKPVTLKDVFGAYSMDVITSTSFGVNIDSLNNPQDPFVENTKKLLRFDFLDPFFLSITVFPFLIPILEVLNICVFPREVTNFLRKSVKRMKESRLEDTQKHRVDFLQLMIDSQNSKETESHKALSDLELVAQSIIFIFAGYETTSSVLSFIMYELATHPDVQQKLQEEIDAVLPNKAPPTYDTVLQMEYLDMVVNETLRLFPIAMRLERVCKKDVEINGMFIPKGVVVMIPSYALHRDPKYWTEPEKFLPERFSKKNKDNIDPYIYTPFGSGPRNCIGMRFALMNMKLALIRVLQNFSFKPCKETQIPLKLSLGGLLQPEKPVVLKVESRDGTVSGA
Chain of hERG (KCNH2) (Q12809 whole entry, the tested form may be a part): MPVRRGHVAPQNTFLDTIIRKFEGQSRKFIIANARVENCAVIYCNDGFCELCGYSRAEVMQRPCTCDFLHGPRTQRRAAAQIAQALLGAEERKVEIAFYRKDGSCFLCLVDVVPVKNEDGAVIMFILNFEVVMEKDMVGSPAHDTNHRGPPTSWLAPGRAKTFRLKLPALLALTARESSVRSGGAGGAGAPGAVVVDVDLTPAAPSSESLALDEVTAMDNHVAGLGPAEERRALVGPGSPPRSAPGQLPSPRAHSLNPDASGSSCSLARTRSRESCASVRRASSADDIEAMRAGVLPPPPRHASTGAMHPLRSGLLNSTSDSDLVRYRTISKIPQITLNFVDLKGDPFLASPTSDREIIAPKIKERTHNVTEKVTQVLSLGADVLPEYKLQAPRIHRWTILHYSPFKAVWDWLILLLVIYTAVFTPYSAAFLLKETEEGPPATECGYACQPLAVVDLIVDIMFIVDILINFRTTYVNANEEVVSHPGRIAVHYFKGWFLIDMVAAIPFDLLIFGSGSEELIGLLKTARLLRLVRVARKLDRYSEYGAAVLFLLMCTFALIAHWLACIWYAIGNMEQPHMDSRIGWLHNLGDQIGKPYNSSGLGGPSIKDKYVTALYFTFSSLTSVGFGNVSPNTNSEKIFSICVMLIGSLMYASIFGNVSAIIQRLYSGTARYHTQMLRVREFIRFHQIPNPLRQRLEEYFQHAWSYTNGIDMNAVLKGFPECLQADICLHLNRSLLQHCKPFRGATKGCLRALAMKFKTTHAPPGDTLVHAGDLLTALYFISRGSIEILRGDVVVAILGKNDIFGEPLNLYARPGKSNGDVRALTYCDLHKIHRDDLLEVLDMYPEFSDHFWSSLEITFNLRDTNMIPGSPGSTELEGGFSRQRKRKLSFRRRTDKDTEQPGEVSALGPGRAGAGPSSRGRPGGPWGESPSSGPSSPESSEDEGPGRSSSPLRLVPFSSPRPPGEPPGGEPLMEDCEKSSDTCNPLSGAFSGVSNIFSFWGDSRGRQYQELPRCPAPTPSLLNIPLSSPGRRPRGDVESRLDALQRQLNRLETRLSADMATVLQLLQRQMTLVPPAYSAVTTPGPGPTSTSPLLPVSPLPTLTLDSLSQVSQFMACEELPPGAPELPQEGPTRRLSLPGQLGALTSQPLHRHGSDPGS

COC[C@@]1(C(=O)Nc2ccc3[nH]nc(-c4ccc(F)cc4)c3c2)CCN(CC(=O)N2CCN(c3ccc(-c4ncccn4)cc3)CC2)C1
IC50 [1]: 25 nM

CS[C@@]1(C(=O)Nc2ccc3[nH]nc(-c4ccc(F)cc4)c3c2)CCN(CC(=O)N2CC=C(c3ccc(-c4ncccn4)cc3)CC2)C1
bioavailability [2]: 75%
MRT [3]: 2.5 h
AUC [4]: 17.2 µM·h
inhibition at […] (hERG (KCNH2)): 8%
half-life [5]: 2 h
IC50 [1]: 7 nM
clearance [6]: 8.4 mL/min/kg
CLH [7]: 18 µL/min/1e6 cells
half-life [8]: 2.5 h
Papp [9]: 60 ×10⁻⁶ cm/s
IC50 (HT-29 [10]): 80 nM
CLH [11]: 7 µL/min/1e6 cells
bioavailability [12]: 70%
clearance [13]: 7.6 mL/min/kg
IC50 (Cytochrome P450 3A4 [14]): 2000 nM
IC50 (Cytochrome P450 3A4 [15]): > 30000 nM
MRT [16]: 5.1 h

O=C(Nc1ccc2[nH]nc(-c3ccc(F)cc3)c2c1)C1CN(CC(=O)N2CC=C(c3ccc(-c4ncccn4)cc3)CC2)CCO1 (stereo not drawn)
IC50 [1]: 119 nM

CC(=O)Nc1ccc2[nH]nc(-c3ccc(F)cc3)c2c1
Drug metabolism [17]: Metabolite_Detected
Drug metabolism [18]: Metabolite_Detected

O=C(Nc1ccc2[nH]nc(-c3ccc(F)cc3)c2c1)[C@@H]1CCN(CC(=O)N2CC=C(c3ccc(-c4ncccn4)cc3)CC2)C1
IC50 [1]: 15.5 nM

O=C(O)[C@@H]1CCN(CC(=O)N2CCN(c3ccc(-c4ncccn4)cc3)CC2)C1
Drug metabolism [17]: Metabolite_Detected
Drug metabolism [18]: Metabolite_Detected

O=C(CN1CCC(Oc2ccccc2)(C(=O)Nc2ccc3[nH]nc(-c4ccc(F)cc4)c3c2)C1)N1CCN(c2ccc(-c3ncccn3)cc2)CC1 (stereo not drawn)
IC50 [1]: > 3000 nM

CS[C@@]1(C(=O)Nc2ccc3[nH]nc(-c4ccc(F)cc4)c3c2)CCN(CC(=O)N2CCN(c3ccc(-c4ncccn4)cc3)CC2)C1
IC50 [1]: 5.6 nM

CO[C@@]1(C(=O)Nc2ccc3[nH]nc(-c4ccc(F)cc4)c3c2)CCN(CC(=O)N2CC=C(c3ccc(-c4ncccn4)cc3)CC2)C1
AUC [4]: 4.53 µM·h
inhibition at […] (hERG (KCNH2)): 56%
IC50 [1]: 4.8 nM
IC50 (HT-29 [19]): 88 nM
CLH [7]: 36 µL/min/1e6 cells
AUC [20]: 1.88 µM·h
IC50 (HT-29 [10]): 79 nM
CLH [11]: 33 µL/min/1e6 cells
IC50 (Cytochrome P450 3A4 [14]): 2200 nM
IC50 (Cytochrome P450 3A4 [15]): 31000 nM

O=C(CN1CC[C@@](CO)(C(=O)Nc2ccc3[nH]nc(-c4ccc(F)cc4)c3c2)C1)N1CC=C(c2ccc(-c3ncccn3)cc2)CC1
IC50 [1]: 14 nM

CS(=O)(=O)[C@@]1(C(=O)Nc2ccc3[nH]nc(-c4ccc(F)cc4)c3c2)CCN(CC(=O)N2CC=C(c3ccc(-c4ncccn4)cc3)CC2)C1
IC50 [1]: 12 nM

C[C@@]1(C(=O)Nc2ccc3[nH]nc(-c4ccc(F)cc4)c3c2)CCN(CC(=O)N2CCN(c3ccc(-c4ncccn4)cc3)CC2)C1
IC50 [1]: 24 nM

CCO[C@@]1(C(=O)Nc2ccc3[nH]nc(-c4ccc(F)cc4)c3c2)CCN(CC(=O)N2CCN(c3ccc(-c4ncccn4)cc3)CC2)C1
IC50 [1]: 9.7 nM

CC(C)O[C@@]1(C(=O)Nc2ccc3[nH]nc(-c4ccc(F)cc4)c3c2)CCN(CC(=O)N2CCN(c3ccc(-c4ncccn4)cc3)CC2)C1
IC50 [1]: 90 nM

O=C(CN1CCC(CF)(C(=O)Nc2ccc3[nH]nc(-c4ccc(F)cc4)c3c2)C1)N1CCN(c2ccc(-c3ncccn3)cc2)CC1 (stereo not drawn)
IC50 [1]: 5.8 nM

CS[C@]1(C(=O)Nc2ccc3[nH]nc(-c4ccc(F)cc4)c3c2)CCN(CC(=O)N2CC=C(c3ccc(-c4ncccn4)cc3)CC2)C1
IC50 [1]: > 3000 nM

[3H]c1cc(N2CCN(C(=O)CN3CC[C@@H](C(=O)Nc4ccc5[nH]nc(-c6c([3H])cc(F)cc6[3H])c5c4)C3)CC2)cc([3H])c1-c1ncccn1
Drug metabolism [21]: Metabolite_Detected
Drug metabolism [22]: Metabolite_Detected
Drug metabolism [23]: Metabolite_Detected
Drug metabolism [24]: Metabolite_Detected
Drug metabolism [25]: Metabolite_Detected
Drug metabolism [26]: Metabolite_Detected
Drug metabolism [27]: Metabolite_Detected
Drug metabolism [28]: Metabolite_Detected

COC[C@@]1(C(=O)Nc2ccc3[nH]nc(-c4ccc(F)cc4)c3c2)CCN(CC(=O)N2CC=C(c3ccc(-c4ncccn4)cc3)CC2)C1
IC50 [1]: 41 nM

CN(C)C1(C(=O)Nc2ccc3[nH]nc(-c4ccc(F)cc4)c3c2)CCN(CC(=O)N2CC=C(c3ccc(-c4ncccn4)cc3)CC2)C1 (stereo not drawn)
IC50 [1]: 21 nM

O=C(CN1CCCC(c2cn(-c3ccc4[nH]nc(-c5ccc(F)cc5)c4c3)nn2)C1)N1CC=C(c2ccc(-c3ncccn3)cc2)CC1 (stereo not drawn)
IC50 [1]: > 1000 nM

O=C(Nc1ccc2[nH]nc(-c3ccc(F)cc3)c2c1)C1CN(CC(=O)N2CC=C(c3ccc(-c4ncccn4)cc3)CC2)CCS1 (stereo not drawn)
IC50 [1]: 1310 nM

CC(=O)N(C[C@@H]1CCN(CC(=O)N2CCN(c3ccc(-c4ncccn4)cc3)CC2)C1)c1ccc2[nH]nc(-c3ccc(F)cc3)c2c1
IC50 [1]: 574 nM

O=C(CN1CC[C@@H](CNc2ccc3[nH]nc(-c4ccc(F)cc4)c3c2)C1)N1CCN(c2ccc(-c3ncccn3)cc2)CC1
IC50 [1]: 960 nM

CO[C@@]1(C(=O)Nc2ccc3[nH]nc(-c4ccc(F)cc4)c3c2)CCN(CC(=O)N2CCN(c3ccc(-c4ncccn4)cc3)CC2)C1
IC50 [1]: 2.1 nM

CC[C@@]1(C(=O)Nc2ccc3[nH]nc(-c4ccc(F)cc4)c3c2)CCN(CC(=O)N2CC=C(c3ccc(-c4ncccn4)cc3)CC2)C1
IC50 [1]: 115 nM

O=C(Nc1ccc2[nH]nc(-c3ccncc3)c2c1)[C@@H]1CCN(CC(=O)N2CCN(c3ccc(-c4ncccn4)cc3)CC2)C1
inhibition at […] (hERG (KCNH2)): 12%
bioavailability [29]: 0%
IC50 (HT-29 [19]): 59 nM
Papp [9]: 4 ×10⁻⁶ cm/s
IC50 (HT-29 [10]): 96 nM
bioavailability [12]: 0%
IC50 (Cytochrome P450 3A4 [14]): 5700 nM
IC50 (Cytochrome P450 3A4 [15]): 7800 nM

O=C(Nc1ccc2[nH]nc(-c3ccc(F)cc3)c2c1)[C@@H]1CCN(CC(=O)N2CCN(c3ccc(-c4ncccn4)cc3)CC2)C1
IC50 [1]: 5.5 nM
